What was measured:
[1] = test system: BT474 cells with high HER3 expression level; assay: Cell killing activity (CellTiter-Glo), BT474; format: cell-based; settings: cultured for 96 h, 120 h, or 144 h
Procedure: (§1) Cells in the logarithmic growth phase were added to a 96-well plate at 100 μL/well, and the cell density was 1×10^4/mL or […]. Adherence culture was carried out at 37° C. and 5% CO2 overnight. Sample preparation: the patritumab-eribulin conjugates were each formulated into test samples with a basal medium containing 10% FBS (initial concentration of 5 μg/mL, 5-fold gradient dilution, nine gradients). Cells subjected to overnight adherence culture were taken out. For the experimental groups, the diluted test sample was added at 50 μL/well, and for the control group, the basal medium containing 10% FBS was added at 50 µL/well. The cells were then cultured for 96 h, 120 h, or 144 h, and then a CellTiter-Glo Luminescent Cell kit (Promega, Cat No.: G7572) was used for assay. The 96-well plate was taken out, the CTG detection solution (Promega. Cat No.: G7572) was added at 75 μL/well, and the mixture was well mixed by shaking and incubated at room temperature in the dark for 10 min. Then 180 μL of solution was pipetted from each well and transferred to an opaque white plate, bubbles were removed, chemiluminescence values were read, and killing rates were calculated.
(§2) Data were analyzed using Graphpad Prism5.

[2] = test system: SKBR3 cells with medium HER3 expression level; assay: Cell killing activity (CellTiter-Glo), SKBR3; format: cell-based; settings: cultured for 96 h, 120 h, or 144 h
Procedure: as §1, §2

[3] = test system: HCC1569 cells with high HER3 expression level; assay: Cell killing activity (CellTiter-Glo), HCC1569; format: cell-based; settings: cultured for 96 h, 120 h, or 144 h
Procedure: as §1, §2

[4] = test system: NCI-N87 cells with medium HER3 expression level; assay: Cell killing activity (CellTiter-Glo), NCI-N87; format: cell-based; settings: cultured for 96 h, 120 h, or 144 h
Procedure: as §1, §2

[5] = test system: JIMT-1 human breast cancer cells; assay: Nude mouse subcutaneous xenograft tumor model of JIMT-1 human breast cancer cells; format: in vivo, nude mice; settings: 3 mg/kg, tail vein injection, Q1W, d21; for Tumor growth inhibition rate 1-T/C: from relative tumor volume; for Tumor inhibition rate TGI: from tumor weight
Procedure: The in vivo efficacy of the patritumab-eribulin conjugates prepared in Example 4 above was evaluated by the nude mouse subcutaneous xenograft tumor models of JIMT-1 human breast cancer cells, a trastuzumab-resistant cell strain.
SPF-grade female nude mice (from Changzhou Cavens Laboratory Animal Ltd.) were inoculated subcutaneously at the right side armpit with 2×10^6 JIMT-1 cells per mouse. When the mean tumor volume reached […], the animals were divided into 5 groups of 6, and the specific grouping and administration regimen are shown in Table 6.
The day of grouping was do, and the tail vein administration was performed at d1 after grouping. The tumor volume was measured 2-3 times a week, and meanwhile, the mice were weighed and the data were recorded; the general behavior of the mice was observed and recorded every day. After the experiment was completed, the tumors were removed, weighed, and photographed.

[6] = test system: MDA-MB-468 cells with medium HER3 expression level; assay: Cell killing activity (CellTiter-Glo), MDA-MB-468; format: cell-based; settings: cultured for 96 h, 120 h, or 144 h
Procedure: as §1, §2

[7] = test system: MCF-7 cells with high HER3 expression level; assay: Cell killing activity (CellTiter-Glo), MCF-7; format: cell-based; settings: cultured for 96 h, 120 h, or 144 h
Procedure: as §1, §2

[8] = test system: JIMT-1 cells with medium HER3 expression level; assay: Cell killing activity (CellTiter-Glo), JIMT-1; format: cell-based, human; settings: cultured for 96 h, 120 h, or 144 h
Procedure: as §1, §2

Substance | EC50 [1] | EC50 [2] | EC50 [3] | EC50 [4] | Tumor growth inhibition rate 1-T/C [5] | Tumor inhibition rate TGI [5] | EC50 [6] | EC50 [7] | EC50 [8]
Patritumab-DDDXd-D8: patritumab-DDDXd conjugate (MC-GGFG-DDDXd, deuterated MC-GGFG-DXd) with a DAR of 7.9, used as control [reference compound] | 10.4 nM | 57.9 nM | 18.3 nM | 0.371 nM | 24.4% | 26.6% | – | – | –
Patritumab-eribulin-D2: patritumab-eribulin conjugate (MC-GGFG-eribulin linker-payload) with a DAR of 2.6 | 0.0935 nM | 0.194 nM | 3.6 nM | – | 36.6% | 41.1% | 12.1 nM | 1.17 nM | 10.5 nM
Patritumab-eribulin-D4: patritumab-eribulin conjugate (MC-GGFG-eribulin linker-payload) with DAR of 4.0-4.2 | 0.0398 nM | 0.043 nM | 0.778 nM | 13.9 nM | 65.9% | 68.9% | 1.41 nM | 0.0994 nM | 3.27 nM
Patritumab-eribulin-D8: patritumab-eribulin conjugate (MC-GGFG-eribulin linker-payload) with a DAR of 7.6 | 0.0181 nM | 0.0232 nM | 0.246 nM | 0.691 nM | 82.9% | 84.3% | 0.321 nM | 0.0361 nM | 0.946 nM
